This note sets out measurements from DBAASP.

Some test systems named below: Bacillus subtilis; Escherichia coli UB1005; Pseudomonas aeruginosa; Staphylococcus aureus; Acinetobacter baumannii; Escherichia coli.
What all share (assay): ≥ marks a high value that may be exact or a test limit, other limits are often not marked, values filed in µg/mL are converted to µM
Assay [1] relates to Candida albicans ATCC 2002.
Assay [2] deals with Escherichia coli ATCC 25922.
For assay [3], the system named is Staphylococcus aureus ATCC 2592.
Assay [4] deals with Candida albicans ATCC 90028.
The test system of assay [5] is Staphylococcus aureus NCTC 8325.
In assay [6] the test system is Pseudomonas aeruginosa Ps4.
In assay [7] the test system is Pseudomonas aeruginosa CMCCB 10104.
The subject of assay [8] is Pseudomonas aeruginosa PAO1.
For assay [9], the system named is Salmonella enterica serovar Typhimurium.
Assay [10] concerns Staphylococcus aureus ATCC 25923.

Each structure is given as a SMILES string. Converted amounts (≈) assume the structure as drawn.

As usually defined, the MIC is the lowest concentration that inhibits growth of the organism. Lower therefore signals a more susceptible organism. As to `CC[C@H](C)[C@H](NC(=O)[C@H](CCCCN)NC(=O)CNC(=O)[C@H](CC(C)C)NC(=O)[C@H](CC(C)C)NC(=O)[C@H](CO)NC(=O)[C@H](C)NC(=O)[C@H](CC(C)C)NC(=O)[C@H](CC(C)C)NC(=O)CNC(=O)CNC(=O)[C@H](CC(C)C)NC(=O)[C@@H](N)Cc1ccccc1)C(=O)O` [FLGGLLASLLGKI], the MIC amounted to 2.38 µM (≈ 3.1 µg/mL) with Bacillus subtilis, 1.23 µM (≈ 1.6 µg/mL) in assay [1], 19.2 µM (≈ 25 µg/mL) in [2] and 2.38 µM (≈ 3.1 µg/mL) in [3].
For the molecule `CC[C@H](C)[C@H](NC(=O)[C@H](CC(C)C)NC(=O)[C@H](CC(N)=O)NC(=O)[C@@H](NC(=O)[C@H](CC(C)C)NC(=O)[C@@H](NC(=O)[C@@H]1CCCN1C(=O)[C@H](CC(C)C)NC(=O)[C@@H](N)Cc1ccccc1)[C@@H](C)CC)[C@@H](C)CC)C(=O)N[C@@H](Cc1cnc[nH]1)C(=O)N[C@@H](CCCCN)C(=O)NCC(=O)N[C@@H](CC(C)C)C(=O)N[C@@H](CC(C)C)C(N)=O` [FLPILINLIHKGLL], the values for the MIC in [4], in assay [2] and in [5] were at least 150 µM, over 150 µM and at least 125 µM, respectively.
`CC[C@H](C)[C@H](NC(=O)[C@H](C)NC(=O)[C@H](CO)NC(=O)[C@H](CC(C)C)NC(=O)[C@@H](N)Cc1ccccc1)C(=O)N[C@H](C(=O)N[C@@H](CO)C(=O)N[C@@H](CC(C)C)C(=O)N[C@@H](CC(C)C)C(=O)NCC(=O)N[C@@H](CCCCN)C(=O)N[C@@H](CC(C)C)C(=O)N[C@@H](CC(C)C)C(N)=O)[C@@H](C)O` [FLSAITSLLGKLL]: the MIC in assay [5] turned out to be 6 µM (≈ 8.25 µg/mL).
Turning to `CC[C@H](C)[C@H](NC(=O)[C@H](CC(N)=O)NC(=O)[C@H](CCCN=C(N)N)NC(=O)[C@H](CCC(N)=O)NC(=O)[C@H](Cc1c[nH]c2ccccc12)NC(=O)[C@@H](N)Cc1ccccc1)C(=O)N[C@@H](Cc1ccccc1)C(=O)N[C@@H](CCCCN)C(=O)N[C@H](C(=O)N[C@@H](CCCN=C(N)N)C(N)=O)C(C)C` [FWQRNIFKVR], the MIC in [6] was at least 179 µM.
On the same count and under the same terms, in the case of `CC[C@H](C)[C@H](NC(=O)[C@H](CC(N)=O)NC(=O)[C@H](CCCN=C(N)N)NC(=O)[C@H](CCC(N)=O)NC(=O)[C@H](Cc1c[nH]c2ccccc12)NC(=O)[C@@H](N)Cc1ccccc1)C(=O)N[C@@H](CCCN=C(N)N)C(=O)N[C@@H](Cc1ccccc1)C(=O)N[C@H](C(=O)N[C@@H](CCCN=C(N)N)C(N)=O)C(C)C` [FWQRNIRFVR] it was at least 176 µM; in that of `CC[C@H](C)[C@H](NC(=O)[C@H](CC(N)=O)NC(=O)[C@H](CCCN=C(N)N)NC(=O)[C@H](CCC(N)=O)NC(=O)[C@H](Cc1c[nH]c2ccccc12)NC(=O)[C@@H](N)Cc1ccccc1)C(=O)N[C@@H](CCCN=C(N)N)C(=O)N[C@@H](Cc1c[nH]c2ccccc12)C(=O)N[C@@H](CCCN=C(N)N)C(=O)N[C@@H](CCCN=C(N)N)C(N)=O` [FWQRNIRWRR], at least 165 µM.
Turning to `CC[C@H](C)[C@H](N)C(=O)N[C@@H](CC(C)C)C(=O)NCC(=O)N1CCC[C@H]1C(=O)N[C@H](C(=O)N[C@@H](CC(C)C)C(=O)N[C@@H](CO)C(=O)N[C@@H](CCSC)C(=O)N[C@H](C(=O)NCC(=O)N[C@@H](CO)C(=O)N[C@@H](C)C(=O)N[C@@H](CC(C)C)C(=O)NCC(=O)NCC(=O)N[C@@H](CC(C)C)C(=O)N[C@H](C(=O)N[C@@H](CCCCN)C(=O)N[C@@H](CCCCN)C(=O)N[C@H](C(N)=O)[C@@H](C)CC)[C@@H](C)CC)C(C)C)C(C)C` [ILGPVLSMVGSALGGLIKKI], the minimum inhibitory concentration (MIC) is 1.02 µM (≈ 2 µg/mL) in [1], 10.2 µM (≈ 20 µg/mL) in assay [2], 2.03 µM (≈ 4 µg/mL) in [7] and 1.02 µM (≈ 2 µg/mL) in assay [3].
Consider `CC[C@H](C)[C@H](N)C(=O)N[C@@H](CC(C)C)C(=O)N1CCC[C@H]1C(=O)N[C@@H](CC(C)C)C(=O)N[C@@H](CC(C)C)C(=O)N[C@@H](CC(C)C)C(=O)NCC(=O)N[C@@H](CCCCN)C(=O)N[C@H](C(=O)N[C@H](C(=O)N[C@H]1CSSC[C@@H](C(=O)O)NC(=O)[C@H](CCCCN)NC(=O)[C@H](CCCCN)NC(=O)[C@H]([C@@H](C)O)NC(=O)[C@H]([C@@H](C)CC)NC(=O)[C@H](C)NC1=O)C(C)C)C(C)C` [ILPLLLGKVVCAITKKC], for which the figures for the MIC in [2] and in assay [5] were 30 µM (≈ 54.3 µg/mL) and 7 µM (≈ 12.7 µg/mL), respectively.
The corresponding values for `CC[C@H](C)[C@H](N)C(=O)N[C@@H](CC(C)C)C(=O)N1CCC[C@H]1C(=O)N[C@@H](CC(C)C)C(=O)N[C@H](C(=O)NCC(=O)N[C@@H](CC(N)=O)C(=O)N[C@@H](CC(C)C)C(=O)N[C@@H](CC(C)C)C(=O)N[C@@H](CC(N)=O)C(=O)N[C@@H](CC(=O)O)C(=O)N[C@@H](CC(C)C)C(=O)N[C@@H](CC(C)C)C(N)=O)C(C)C` [ILPLVGNLLNDLL] are over 100 µM and at least 100 µM.
On to `CC[C@H](C)[C@H](N)C(=O)N[C@@H](CC(N)=O)C(=O)N[C@@H](Cc1c[nH]c2ccccc12)C(=O)N[C@@H](CCCCN)C(=O)NCC(=O)N[C@H](C(=O)N[C@@H](C)C(=O)N[C@@H](C)C(=O)N[C@@H](CCSC)C(=O)N[C@@H](CCCCN)C(=O)N[C@@H](CCCCN)C(=O)N[C@@H](CC(C)C)C(=O)N[C@@H](CC(C)C)C(N)=O)[C@@H](C)CC` [INWKGIAAMKKLL], for which the values for the MIC in assay [1], in assay [2] and in [3] were 5.05 µM (≈ 7.5 µg/mL), 10.1 µM (≈ 15 µg/mL) and 2.49 µM (≈ 3.7 µg/mL), respectively.
For the molecule `CC[C@H](C)[C@H](NC(=O)[C@H](Cc1ccccc1)NC(=O)[C@H](CCCCN)NC(=O)[C@H](CCCCN)NC(=O)[C@H](Cc1c[nH]c2ccccc12)NC(=O)[C@@H](N)CCCCN)C(=O)N[C@@H](CCCCN)C(=O)N[C@@H](CO)C(=O)N[C@@H](CC(C)C)C(=O)N[C@H](C(=O)N[C@@H](CCCCN)C(=O)N[C@@H](CO)C(=O)N[C@@H](C)C(=O)N[C@@H](C)C(=O)N[C@@H](CCCCN)C(=O)N[C@H](C(=O)N[C@H](C(=O)N[C@H](C(=O)N[C@@H](CCCCN)C(=O)N[C@H](C(=O)N[C@@H](C)C(=O)N[C@@H](CCCCN)C(=O)N[C@@H](CCCCN)C(=O)N1CCC[C@H]1C(=O)N[C@@H](CC(C)C)C(=O)N[C@H](C(=O)N[C@H](C(N)=O)C(C)C)[C@@H](C)CC)[C@@H](C)O)C(C)C)C(C)C)[C@@H](C)O)[C@@H](C)O` [KWKKFIKSLTKSAAKTVVKTAKKPLIV], the MIC against Escherichia coli UB1005 was 0.329 µM (≈ 1 µg/mL); in [8], 1.31 µM (≈ 4 µg/mL); in the assay with Pseudomonas aeruginosa it was 0.93 µM (≈ 2.83 µg/mL); in assay [9], 0.986 µM (≈ 3 µg/mL); in the assay with Staphylococcus aureus, over 21 µM.
As for `CC[C@H](C)[C@H](NC(=O)[C@H](CO)NC(=O)CNC(=O)[C@@H](NC(=O)[C@@H](N)C(C)C)[C@@H](C)CC)C(=O)N[C@@H](CC(C)C)C(=O)NCC(=O)N[C@@H](C)C(=O)N[C@@H](CC(C)C)C(=O)N[C@@H](C)C(=O)N[C@@H](CO)C(=O)NCC(=O)N[C@@H](CC(C)C)C(=O)N1CCC[C@H]1C(=O)N[C@H](C(=O)N[C@@H](CC(C)C)C(=O)N[C@H](C(=O)N[C@@H](CO)C(=O)N[C@@H](Cc1c[nH]c2ccccc12)C(=O)N[C@H](C(=O)N[C@@H](CCCCN)C(=O)N[C@@H](CC(N)=O)C(=O)N[C@@H](CCCN=C(N)N)C(N)=O)[C@@H](C)CC)[C@@H](C)CC)[C@@H](C)O` [VIGSILGALASGLPTLISWIKNR], the MIC in assay [4] came out at 25 µM (≈ 59.5 µg/mL); in assay [2] it was 25 µM (≈ 59.5 µg/mL); in assay [5] it was 6 µM (≈ 14.3 µg/mL).
Turning to `CC(C)[C@H](N)C(=O)N[C@@H](CCCCN)C(=O)N[C@@H](CCCN=C(N)N)C(=O)N[C@@H](Cc1ccccc1)C(=O)N[C@@H](CCCCN)C(=O)N[C@@H](CCCCN)C(=O)N[C@@H](Cc1ccccc1)C(=O)N[C@@H](Cc1ccccc1)C(=O)N[C@@H](CCCN=C(N)N)C(=O)N[C@@H](CCCCN)C(=O)N[C@@H](Cc1ccccc1)C(=O)N[C@@H](CCCCN)C(=O)N[C@@H](CCCCN)C(=O)N[C@@H](CO)C(=O)N[C@H](C(N)=O)C(C)C` [VKRFKKFFRKFKKSV], the MIC with Bacillus subtilis is at least 50.7 µM; in assay [1] it was 4.75 µM (≈ 9.38 µg/mL); in assay [2], 19 µM (≈ 37.5 µg/mL); in assay [3], at least 50.7 µM.
Consider `CC[C@H](C)[C@H](NC(=O)[C@H](CCCN=C(N)N)NC(=O)[C@@H](NC(=O)[C@H](CCCN=C(N)N)NC(=O)[C@H](Cc1c[nH]c2ccccc12)NC(=O)[C@H](CCC(N)=O)NC(=O)[C@@H](N)C(C)C)[C@@H](C)CC)C(=O)N[C@@H](C)C(=O)N[C@H](C(=O)N[C@H](C(=O)N[C@@H](CCCN=C(N)N)C(=O)N[C@@H](C)C(=O)O)[C@@H](C)CC)C(C)C` [VQWRIRIAVIRA], for which the MIC against Acinetobacter baumannii came out at 21.6 µM (≈ 32 µg/mL); in assay [2], 5.4 µM (≈ 8 µg/mL); against Escherichia coli, 43.2 µM (≈ 64 µg/mL); in assay [8], 21.6 µM (≈ 32 µg/mL); in the assay with Pseudomonas aeruginosa, 30.6 µM (≈ 45.3 µg/mL); in assay [9], 2.7 µM (≈ 4 µg/mL). The figures for the minimum inhibitory concentration (MIC) (in [10]; in the assay on Staphylococcus aureus) were 5.4 µM (≈ 8 µg/mL) and 15.3 µM (≈ 22.6 µg/mL), respectively.
Consider `CC[C@H](C)[C@H](NC(=O)[C@H](CCCN=C(N)N)NC(=O)[C@H](Cc1c[nH]c2ccccc12)NC(=O)[C@H](CCC(N)=O)NC(=O)[C@@H](N)C(C)C)C(=O)N[C@@H](CCCN=C(N)N)C(=O)N[C@H](C(=O)N[C@@H](CS)C(=O)N[C@H](C(=O)N[C@H](C(=O)N[C@@H](CCCN=C(N)N)C(=O)N[C@@H](C)C(=O)O)[C@@H](C)CC)C(C)C)C(C)C` [VQWRIRVCVIRA], for which the MIC in assay [2], in assay [8], in assay [9] and in assay [10] was 21.3 µM (≈ 32 µg/mL) in each case.
